Patent EP3995502A1, “4-HYDROXYPHENYL PHOSPHONIUM SALTS WITH ANTI-PARASITIC PROPERTIES” (priority 2019, dated 2021)
Where two headings read alike, the source gives them in different places.

Tests used:
[1] = test system: L. donovani promastigotes; assay: In vitro leishmanicidal activity, MTT colorimetric method, promastigotes; settings: read-out: EC50 (µM) L. donovani promastigotes
[2] = test system: L. donovani intracellular amastigotes; assay: In vitro leishmanicidal activity, MTT colorimetric method, intracellular amastigotes; settings: read-out: EC50 (µM) L. donovani intracellular amastigotes
THP-1 cells [3] = test system: THP-1 cells
THP-1 cells [4] = assay: cells; settings: Homo sapiens, THP-1, read-out: EC50 (µM) THP-1 cells
T. brucei B48 = assay: microbe, parasite or virus in culture; type: cell-based, T. b. brucei; parameters: RF: unit not given here; settings: for EC50: Trypanosoma brucei, read-out: EC50 (µM) T. brucei B48
[5] = test system: T. brucei (strain s427 of T. b. brucei); assay: In vitro trypanocidal activity, sensitive strain s427; type: cell-based; settings: Trypanosoma brucei, read-out: EC50 (µM) T. brucei
in vitro [6] = settings: human, liver S9 fraction
[7] = human, liver microsomes
in vitro [8] = settings: human, liver microsomes
[9] = test system: L. infantum intracellular amastigotes; assay: Leishmanicidal activity on intracellular amastigotes of clinical isolates of L. infantum; type: cell-based
Text: (§1) The data represent the mean ± standard deviation of 3 independent experiments. ^b SI = selectivity index (EC50 THP-1 / EC50 parasite (amastigote form)). ^c not assayed. ^d Sensitivity data obtained in L. infantum LEM3049. ^eAmphotericin B. ^fMiltefosine.
(§2) ^aClinical isolates of L. infantum used: LEM 3049 as a reference line; LEM 3323, resistant to Sb^III; LEM 5159, resistant to miltefosine (MIL) and LEM 2126, resistant to MIL and paromomycin. Amphotericin B (AmB) was used as a reference drug. The data represent the mean ± standard deviation of 3 independent experiments.

[10] = test system: L. infantum promastigotes; assay: Leishmanicidal activity on promastigotes of clinical isolates of L. infantum; type: cell-based
Text: as §1, §2

[11] = selectivity index (EC50 THP-1 / EC50 parasite (amastigote form)), L. donovani
[12] = strain s427 of T. b. brucei, mean ± standard deviation of 3 independent experiments
[13] = strain HU3, mean ± standard deviation of 3 independent experiments

Structure (SMILES): CCCCCCCCCCCCCCCCOP(=O)([O-])OCC[N+](C)(C)C [MIL, Miltefosine]
- EC50 ([1]; Leishmania donovani): 6.51 ± 0.35 µM
- EC50 ([2]; Leishmania donovani): 0.91 ± 0.05 µM
- SI (THP-1 cells [3]; [11]): 28.8
- EC50 (THP-1 cells [4]): 26.2 ± 2.58 µM

Structure (SMILES): Cc1cc(O)ccc1C(=O)CCCCCCCCCCCCCCC[P+](c1ccccc1)(c1ccccc1)c1ccccc1.[Br-] [compound 2, (16-(4-hydroxy-2-methylphenyl)-16-oxohexadecyl)triphenylphosphonium bromide]
- EC50 ([1]; Leishmania donovani): 0.09 ± 0.01 µM
- EC50 ([2]; Leishmania donovani): 0.1 ± 0.01 µM
- SI (THP-1 cells [3]): 24.5
- EC50 (THP-1 cells [4]): 2.45 ± 0.41 µM
- RF (T. brucei B48): 1.01
- EC50 (T. brucei B48): 0.044 µM
- EC50 [5, 12]: 0.043 µM

Structure (SMILES): O=C(O)Cc1ccccc1Nc1c(Cl)cccc1Cl [diclofenac]
- half-life (in vitro [6]): < 30 min
- intrinsic clearance [7]: high
- half-life (in vitro [8]): < 30 min

Structure (SMILES): Cc1cc(O)ccc1C(=O)CCCCCCCCCCCCCCC[P+](c1ccccc1)(c1ccccc1)c1ccccn1.[Br-] [compound 3, (16-(4-hydroxy-2-methylphenyl)-16-oxohexadecyl)diphenyl(pyridin-2-yl)phosphonium bromide]
- EC50 ([1]; Leishmania donovani): 0.28 ± 0.05 µM
- EC50 ([2]; Leishmania donovani): 0.1 ± 0.02 µM
- SI (THP-1 cells [3]): 21.1
- EC50 (THP-1 cells [4]): 2.11 ± 0.12 µM
- RF (T. brucei B48): 0.90
- EC50 (T. brucei B48): 0.096 µM
- EC50 [5, 12]: 0.107 µM

Structure (SMILES): C[C@@H]1[C@H](O)[C@@H](C)/C=C/C=C/C=C/C=C/C=C/C=C/C=C/[C@H](O[C@@H]2O[C@H](C)[C@@H](O)[C@H](N)[C@@H]2O)C[C@@H]2O[C@](O)(C[C@@H](O)C[C@@H](O)[C@H](O)CC[C@@H](O)C[C@@H](O)CC(=O)O[C@H]1C)C[C@H](O)[C@H]2C(=O)O [AmB, Amphotericin B]
- EC50 [1, 13]: 0.13 ± 0.02 µM
- EC50 ([9]; L. infantum LEM3049, reference line, read-out: EC50 (µM) Intracellular amastigotes): 0.17 ± 0.02 µM
- EC50 ([9]; L. infantum LEM3323, resistant to SbIII, read-out: EC50 (µM) Intracellular amastigotes): 0.18 ± 0.02 µM
- EC50 ([9]; L. infantum LEM5159, resistant to miltefosine, read-out: EC50 (µM) Intracellular amastigotes): 0.16 ± 0.03 µM
- EC50 ([9]; L. infantum LLM2126, resistant to MIL and paromomycin, read-out: EC50 (µM) Intracellular amastigotes): 0.16 ± 0.01 µM
- EC50 [2, 13]: 0.24 µM
- EC50 (THP-1 cells [3]; read-out: EC50 (µM) THP-1 cells, human THP-1 cells, cytotoxicity): 27.9 µM
- SI (THP-1 cells [3]; [11]): 116.0
- EC50 ([10]; L. infantum LEM3049, reference line, read-out: EC50 (µM) Promastigotes): 0.06 ± 0.02 µM
- EC50 ([10]; L. infantum LEM3323, resistant to SbIII, read-out: EC50 (µM) Promastigotes): 0.07 ± 0.03 µM
- EC50 ([10]; L. infantum LEM5159, resistant to miltefosine, read-out: EC50 (µM) Promastigotes): 0.05 ± 0.01 µM
- EC50 ([10]; L. infantum LLM2126, resistant to MIL and paromomycin, read-out: EC50 (µM) Promastigotes): 0.1 ± 0.02 µM

Structure (SMILES): O=C(CCCCCCCCCCCCCCC[P+](c1cccc2ccccc12)(c1cccc2ccccc12)c1cccc2ccccc12)c1ccc(O)cc1O.[Br-] [compound 4, (16-(2,4-dihydroxyphenyl)-16-oxohexadecyl)tri(naphthalen-1-yl)phosphonium bromide]
- EC50 ([9]; Leishmania infantum, footnote d: sensitivity data obtained in L. infantum LEM3049, read-out: EC50 (µM) L. donovani intracellular amastigotes): 1.25 ± 0.22 µM
- SI (THP-1 cells [3]; selectivity index (EC50 THP-1 / EC50 parasite (amastigote form)), parasite data from L. infantum LEM3049): 10.3
- EC50 (THP-1 cells [4]): 12.8 ± 2.3 µM
- EC50 ([10]; Leishmania infantum, footnote d: sensitivity data obtained in L. infantum LEM3049, read-out: EC50 (µM) L. donovani promastigotes): 3.54 ± 0.36 µM

Structure (SMILES): N=C(N)c1ccc(OCCCCCOc2ccc(C(=N)N)cc2)cc1 [Pent, Pentamidine]
- EC50 (T. brucei B48): 0.55 ± 0.03 µM
- EC50 [5, 12]: 0.0033 ± 0.0006 µM

Structure (SMILES): N=C(N)c1ccc(/N=N/Nc2ccc(C(=N)N)cc2)cc1 [Dimin, Diminazene]
- EC50 (T. brucei B48): 1.33 ± 0.14 µM
- EC50 [5]: 0.101 µM
